Assay results published in the supplement of paper PMC10307832.

Tests used:
Assay in all cases: relative viability (nuclei count vs DMSO), 5 days (fraction); higher = more cells survive
[1] = compound: CN1CCN(CC1)C2=CC(=C(C=C2)NC3=NC(=C(S3)C(=O)C4=C(C=CC=C4Cl)Cl)N)OC [XMD14-99] + NC(=O)Nc1cc(-c2cccc(F)c2)sc1C(=O)N[C@H]1CCCNC1 [AZD7762] (partner 0.2 µM)
How it was run: (§1)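 A single step with final 0.05% Triton X-100, 1% formaldehyde and 1 ug/ml Hoechst fixed the cells and stained nuclei 5 days after treatment. Lung cancer cell lines in 1536-well plates had been treated by pin tool the day after seeding with one drug alone or a fixed anchor-drug dose plus five library-drug doses (not always all listed) in √10 steps, and nuclei were counted on 4× images. Relative viability is the ratio of nuclei in treated wells to nuclei in vehicle wells, taken as the median of duplicate plates.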

[2] = compound: N[C@@H]1CCCN(c2c(/C=C3\SC(=O)NC3=O)cccc2-c2ccccc2)C1 [AZD1208] + Nc1ncn([C@H]2C[C@H](O)[C@@H](CO)O2)c(=O)n1 [Decitabine] (partner 2 µM)
How it was run: as §1

[3] = compound: N[C@@H]1CCCN(c2c(/C=C3\SC(=O)NC3=O)cccc2-c2ccccc2)C1 [AZD1208] + C[C@@H](Oc1cc(-c2cnn(C3CCNCC3)c2)cnc1N)c1c(Cl)ccc(F)c1Cl [Crizotinib] (partner 1 µM)
How it was run: as §1

[4] = compound: CN1CCN(CC1)C2=CC(=C(C=C2)NC3=NC(=C(S3)C(=O)C4=C(C=CC=C4Cl)Cl)N)OC [XMD14-99] + CC(=O)c1c(C)c2cnc(Nc3ccc(N4CCNCC4)cn3)nc2n(C2CCCC2)c1=O [Palbociclib] (partner 0.5 µM)
How it was run: as §1

Cell Line | relative viability ([1]; first compound 0.08 µM) | relative viability ([1]; first compound 0.8 µM) | relative viability ([1]; first compound 2.53 µM) | relative viability ([1]; first compound 8 µM) | relative viability ([2]; first compound 0.08 µM) | relative viability ([2]; first compound 0.253 µM) | relative viability ([2]; first compound 0.8 µM) | relative viability ([2]; first compound 2.53 µM) | relative viability ([2]; first compound 8 µM) | relative viability ([3]; first compound 0.08 µM) | relative viability ([3]; first compound 0.253 µM) | relative viability ([3]; first compound 0.8 µM) | relative viability ([3]; first compound 2.53 µM) | relative viability ([3]; first compound 8 µM) | relative viability ([4]; first compound 0.08 µM) | relative viability ([4]; first compound 0.8 µM) | relative viability ([4]; first compound 2.53 µM) | relative viability ([4]; first compound 8 µM)
HCC-44 | 1.05 | 1.04 | 0.993 | 0.981 | 0.98 | 0.907 | 0.939 | 0.995 | 0.916 | 0.828 | 0.905 | 0.788 | 0.879 | 0.82 | 1.03 | 0.969 | 1 | 1.01
NCI-H647 | 0.506 | 0.472 | 0.433 | 0.335 | 0.256 | 0.56 | 0.33 | 0.372 | 0.297 | 0.953 | 1.09 | 0.894 | 0.906 | 0.757 | 0.408 | 0.459 | 0.505 | 0.364
H3255 | 0.854 | 0.777 | 0.75 | 0.586 | 0.689 | 0.714 | 0.56 | 0.589 | 0.523 | 0.897 | 0.854 | 0.916 | 0.828 | 0.774 | 0.317 | 0.303 | 0.296 | 0.295
NCI-H650 | 1.05 | 1.06 | 1.16 | 0.851 | 0.284 | 0.297 | 0.352 | 0.31 | 0.343 | 0.704 | 0.723 | 0.577 | 0.576 | 0.643 | 0.341 | 0.337 | 0.34 | 0.38
